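Exposure lasted 48 hours, with cells grown in 96-well plates and compounds tested at five concentrations. GI50 marks 50% less growth. The concentration for full growth arrest is given as TGI.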
Columns and labels:
Assay in all cases: growth of human tumour cells (NCI), 48 h
COLO 205 colon = tested on: COLO 205 colon
A549 NSCLC = tested on: A549 NSCLC
HCT-15 colon = tested on: HCT-15 colon
UO-31 renal = tested on: UO-31 renal
LOX IMVI melanoma = tested on: LOX IMVI melanoma
HL-60(TB) leukemia = tested on: HL-60(TB) leukemia
T-47D breast = tested on: T-47D breast
HOP-62 NSCLC = tested on: HOP-62 NSCLC
SK-MEL-5 melanoma = tested on: SK-MEL-5 melanoma
U251 CNS = tested on: U251 CNS
DU-145 prostate = tested on: DU-145 prostate
HT29 colon = tested on: HT29 colon
SNB-19 CNS = tested on: SNB-19 CNS
SK-OV-3 ovarian = tested on: SK-OV-3 ovarian
K-562 leukemia = tested on: K-562 leukemia
CAKI-1 renal = tested on: CAKI-1 renal
SK-MEL-2 melanoma = tested on: SK-MEL-2 melanoma
HS 578T breast = tested on: HS 578T breast
SF-539 CNS = tested on: SF-539 CNS
HOP-92 NSCLC = tested on: HOP-92 NSCLC
OVCAR-3 ovarian = tested on: OVCAR-3 ovarian
SNB-75 CNS = tested on: SNB-75 CNS
UACC-257 melanoma = tested on: UACC-257 melanoma
NCI-H522 lung = tested on: NCI-H522 lung
SN12C renal = tested on: SN12C renal
MDA-MB-231 breast = tested on: MDA-MB-231 breast
SK-MEL-28 melanoma = tested on: SK-MEL-28 melanoma
RPMI-8226 leukemia = tested on: RPMI-8226 leukemia
IGROV1 ovarian = tested on: IGROV1 ovarian
UACC-62 melanoma = tested on: UACC-62 melanoma
A498 renal = tested on: A498 renal
RXF 393 renal = tested on: RXF 393 renal
786-0 renal = tested on: 786-0 renal
TK-10 renal = tested on: TK-10 renal
PC-3 prostate = tested on: PC-3 prostate
CCRF-CEM leukemia = tested on: CCRF-CEM leukemia
OVCAR-4 ovarian = tested on: OVCAR-4 ovarian
NCI-H460 lung = tested on: NCI-H460 lung
OVCAR-5 ovarian = tested on: OVCAR-5 ovarian
KM12 colon = tested on: KM12 colon
HCT-116 colon = tested on: HCT-116 colon
MALME-3M melanoma = tested on: MALME-3M melanoma
BT-549 breast = tested on: BT-549 breast
NCI-H23 lung = tested on: NCI-H23 lung
SW-620 colon = tested on: SW-620 colon
MDA-MB-435 = tested on: MDA-MB-435
NCI-H226 lung = tested on: NCI-H226 lung
SF-295 CNS = tested on: SF-295 CNS
OVCAR-8 ovarian = tested on: OVCAR-8 ovarian
HCC-2998 colon = tested on: HCC-2998 colon
NCI/ADR-RES ovarian = tested on: NCI/ADR-RES ovarian
ACHN renal = tested on: ACHN renal
M14 melanoma = tested on: M14 melanoma
EKVX NSCLC = tested on: EKVX NSCLC
MCF7 breast = tested on: MCF7 breast
SF-268 CNS = tested on: SF-268 CNS

`O=c1[nH]cnc2c(C3OC(CO)C(O)C3O)scc12` (configuration not stated) was tested. Which GI50 (COLO 205 colon) did it give?
Its GI50 is over 100 µM.

And the TGI (COLO 205 colon)?
Its TGI is over 100 µM.

And the GI50 (A549 NSCLC)?
The GI50 was over 100 µM.

And the TGI (A549 NSCLC)?
The TGI was over 100 µM.

What about the GI50 (HCT-15 colon) of the same molecule?
The GI50 was 60 µM.

And the TGI (HCT-15 colon)?
Its TGI is over 100 µM.

What about the GI50 (UO-31 renal) of the same molecule?
The GI50 was 51.4 µM.

And the TGI (UO-31 renal)?
The TGI was over 100 µM.

What about the GI50 (LOX IMVI melanoma) of the same molecule?
The GI50 was 43.9 µM.

What about the TGI (LOX IMVI melanoma) of the same molecule?
The TGI was over 100 µM.

And the GI50 (HL-60(TB) leukemia)?
The GI50 was 19.6 µM.

And the TGI (HL-60(TB) leukemia)?
Its TGI is over 100 µM.

And the GI50 (T-47D breast)?
Its GI50 is over 100 µM.

What about the TGI (T-47D breast) of the same molecule?
The TGI was over 100 µM.

What about the GI50 (HOP-62 NSCLC) of the same molecule?
The GI50 was 46.9 µM.

What about the TGI (HOP-62 NSCLC) of the same molecule?
Its TGI is over 100 µM.

What about the GI50 (SK-MEL-5 melanoma) of the same molecule?
Its GI50 is over 100 µM.

What about the TGI (SK-MEL-5 melanoma) of the same molecule?
Its TGI is over 100 µM.

What about the GI50 (U251 CNS) of the same molecule?
Its GI50 is over 100 µM.

What about the TGI (U251 CNS) of the same molecule?
Its TGI is over 100 µM.

And the GI50 (DU-145 prostate)?
Its GI50 is 5.47 µM.

What about the TGI (DU-145 prostate) of the same molecule?
Its TGI is over 100 µM.

And the GI50 (HT29 colon)?
The GI50 was over 100 µM.

What about the TGI (HT29 colon) of the same molecule?
The TGI was over 100 µM.

What about the GI50 (SNB-19 CNS) of the same molecule?
Its GI50 is over 100 µM.

And the TGI (SNB-19 CNS)?
The TGI was over 100 µM.

What about the GI50 (SK-OV-3 ovarian) of the same molecule?
Its GI50 is over 100 µM.

And the TGI (SK-OV-3 ovarian)?
The TGI was over 100 µM.

And the GI50 (K-562 leukemia)?
Its GI50 is 31.5 µM.

And the TGI (K-562 leukemia)?
The TGI was over 100 µM.

And the GI50 (CAKI-1 renal)?
Its GI50 is 77.9 µM.

And the TGI (CAKI-1 renal)?
The TGI was over 100 µM.

And the GI50 (SK-MEL-2 melanoma)?
Its GI50 is 44.8 µM.

What about the TGI (SK-MEL-2 melanoma) of the same molecule?
Its TGI is over 100 µM.

And the GI50 (HS 578T breast)?
Its GI50 is over 100 µM.

And the TGI (HS 578T breast)?
The TGI was over 100 µM.

What about the GI50 (SF-539 CNS) of the same molecule?
The GI50 was over 100 µM.

And the TGI (SF-539 CNS)?
Its TGI is over 100 µM.

And the GI50 (HOP-92 NSCLC)?
Its GI50 is 5.03 µM.

What about the TGI (HOP-92 NSCLC) of the same molecule?
The TGI was over 100 µM.

What about the GI50 (OVCAR-3 ovarian) of the same molecule?
Its GI50 is over 100 µM.

And the TGI (OVCAR-3 ovarian)?
Its TGI is over 100 µM.

What about the GI50 (SNB-75 CNS) of the same molecule?
Its GI50 is over 100 µM.

What about the TGI (SNB-75 CNS) of the same molecule?
Its TGI is over 100 µM.

What about the GI50 (UACC-257 melanoma) of the same molecule?
Its GI50 is over 100 µM.

And the TGI (UACC-257 melanoma)?
Its TGI is over 100 µM.

What about the GI50 (NCI-H522 lung) of the same molecule?
Its GI50 is over 100 µM.

And the TGI (NCI-H522 lung)?
Its TGI is over 100 µM.

And the GI50 (SN12C renal)?
The GI50 was over 100 µM.

What about the TGI (SN12C renal) of the same molecule?
Its TGI is over 100 µM.

What about the GI50 (MDA-MB-231 breast) of the same molecule?
Its GI50 is 37.5 µM.

What about the TGI (MDA-MB-231 breast) of the same molecule?
Its TGI is over 100 µM.

What about the GI50 (SK-MEL-28 melanoma) of the same molecule?
Its GI50 is over 100 µM.

What about the TGI (SK-MEL-28 melanoma) of the same molecule?
The TGI was over 100 µM.

What about the GI50 (RPMI-8226 leukemia) of the same molecule?
Its GI50 is 26.9 µM.

And the TGI (RPMI-8226 leukemia)?
The TGI was over 100 µM.

And the GI50 (IGROV1 ovarian)?
The GI50 was 73.5 µM.

What about the TGI (IGROV1 ovarian) of the same molecule?
Its TGI is over 100 µM.

What about the GI50 (UACC-62 melanoma) of the same molecule?
The GI50 was over 100 µM.

And the TGI (UACC-62 melanoma)?
Its TGI is over 100 µM.

And the GI50 (A498 renal)?
The GI50 was over 100 µM.

What about the TGI (A498 renal) of the same molecule?
Its TGI is over 100 µM.

And the GI50 (RXF 393 renal)?
The GI50 was over 100 µM.

And the TGI (RXF 393 renal)?
Its TGI is over 100 µM.

What about the GI50 (786-0 renal) of the same molecule?
The GI50 was over 100 µM.

And the TGI (786-0 renal)?
The TGI was over 100 µM.

And the GI50 (TK-10 renal)?
The GI50 was 11.6 µM.

And the TGI (TK-10 renal)?
Its TGI is over 100 µM.

What about the GI50 (PC-3 prostate) of the same molecule?
The GI50 was 37.9 µM.

What about the TGI (PC-3 prostate) of the same molecule?
Its TGI is over 100 µM.

And the GI50 (CCRF-CEM leukemia)?
Its GI50 is 0.271 µM.

What about the TGI (CCRF-CEM leukemia) of the same molecule?
The TGI was 1.16 µM.

What about the GI50 (OVCAR-4 ovarian) of the same molecule?
Its GI50 is over 100 µM.

And the TGI (OVCAR-4 ovarian)?
Its TGI is over 100 µM.

What about the GI50 (NCI-H460 lung) of the same molecule?
Its GI50 is 74 µM.

What about the TGI (NCI-H460 lung) of the same molecule?
The TGI was over 100 µM.

What about the GI50 (OVCAR-5 ovarian) of the same molecule?
The GI50 was over 100 µM.

And the TGI (OVCAR-5 ovarian)?
The TGI was over 100 µM.

And the GI50 (KM12 colon)?
Its GI50 is over 100 µM.

What about the TGI (KM12 colon) of the same molecule?
Its TGI is over 100 µM.

What about the GI50 (HCT-116 colon) of the same molecule?
Its GI50 is over 100 µM.

What about the TGI (HCT-116 colon) of the same molecule?
The TGI was over 100 µM.

And the GI50 (MALME-3M melanoma)?
The GI50 was 13.8 µM.

And the TGI (MALME-3M melanoma)?
Its TGI is over 100 µM.

What about the GI50 (BT-549 breast) of the same molecule?
The GI50 was over 100 µM.

What about the TGI (BT-549 breast) of the same molecule?
The TGI was over 100 µM.

What about the GI50 (NCI-H23 lung) of the same molecule?
The GI50 was over 100 µM.

What about the TGI (NCI-H23 lung) of the same molecule?
The TGI was over 100 µM.

And the GI50 (SW-620 colon)?
The GI50 was 99.9 µM.

And the TGI (SW-620 colon)?
Its TGI is over 100 µM.

And the GI50 (MDA-MB-435)?
Its GI50 is over 100 µM.

And the TGI (MDA-MB-435)?
Its TGI is over 100 µM.

What about the GI50 (NCI-H226 lung) of the same molecule?
The GI50 was over 100 µM.

What about the TGI (NCI-H226 lung) of the same molecule?
The TGI was over 100 µM.

What about the GI50 (SF-295 CNS) of the same molecule?
The GI50 was over 100 µM.

And the TGI (SF-295 CNS)?
Its TGI is over 100 µM.

And the GI50 (OVCAR-8 ovarian)?
Its GI50 is 54.8 µM.

And the TGI (OVCAR-8 ovarian)?
Its TGI is over 100 µM.

What about the GI50 (HCC-2998 colon) of the same molecule?
The GI50 was 32.3 µM.

And the TGI (HCC-2998 colon)?
The TGI was over 100 µM.

And the GI50 (NCI/ADR-RES ovarian)?
Its GI50 is 44.5 µM.

What about the TGI (NCI/ADR-RES ovarian) of the same molecule?
The TGI was over 100 µM.

What about the GI50 (ACHN renal) of the same molecule?
The GI50 was 49.1 µM.

What about the TGI (ACHN renal) of the same molecule?
The TGI was over 100 µM.

And the GI50 (M14 melanoma)?
Its GI50 is 56.5 µM.

What about the TGI (M14 melanoma) of the same molecule?
The TGI was over 100 µM.

And the GI50 (EKVX NSCLC)?
The GI50 was over 100 µM.

What about the TGI (EKVX NSCLC) of the same molecule?
Its TGI is over 100 µM.

What about the GI50 (MCF7 breast) of the same molecule?
The GI50 was 50.1 µM.

And the TGI (MCF7 breast)?
The TGI was over 100 µM.

What about the GI50 (SF-268 CNS) of the same molecule?
Its GI50 is over 100 µM.

And the TGI (SF-268 CNS)?
Its TGI is over 100 µM.
